Data published in paper PMC9161444, “In-Membrane Nanostructuring of Cationic Amphiphiles Affects Their Antimicrobial Efficacy and Cytotoxicity: A Comparison Study between a De Novo Antimicrobial Lipopeptide and Traditional Biocides” (Langmuir, 2022).

Legend:
[1] = system: S. aureus (ATCC 6538); format: cell-based, Staphylococcus aureus; settings: for MIC/CAC, converted data, S. aureus: MIC divided by the amphiphile's CAC; for MIC, S. aureus: microdilution, serial half-dilution in PBS, Mueller Hinton broth, 37 °C, 24 h, 10^6 CFU/mL, by eye and OD600, ± SD, at least three replicates
Protocol: E. coli (ATCC 25922), S. aureus (ATCC 6538), and C. albicans SC5314 (ATCC MYA-2876) were purchased from the American Type Culture Collection (ATCC). The two bacterial strains, E. coli and S. aureus, were cultured in Mueller Hinton broth at 37 °C; while the yeast strain, C. albicans, was grown in RPMI 1640 medium at 30 °C. The microdilution method was employed to determine MICs of the amphiphiles against the microorganism strains listed above.[21] Solutions of lipopeptides and biocides were half-diluted serially in 96-well plates using PBS buffer containing 137 mM NaCl, 2.7 mM KCl, 8.1 mM Na2HPO4, and 1.9 mM KH2PO4 for E. coli and S. aureus and using RPMI 1640 for C. albicans. Overnight incubations of the strains, in each respective growth medium, were then inoculated into each well, giving final concentrations of 10^6 CFU/mL for E. coli and S. aureus and 10^5 CFU/mL for C. albicans. Culture media without microorganisms and amphiphiles were employed as positive controls, while fresh microorganism cultures without amphiphiles were used as negative controls. Each plate has both positive controls and negative controls. The plates were then incubated at an appropriate temperature (stated above) for 24 h for the bacterial strains and 48 h for the yeast strain. MICs of each sample were first determined by eye. A more quantitative analysis was carried out by measuring optical densities at 600 nm (OD600) of each well using a Sunrise absorbance microplate reader (Tecan Group Ltd.). Inhibitory ratios (IRs) of each sample at a given concentration against a specific strain, denoted as IRi, were calculated by IRi = (OD600,negative control – OD600,i)/(OD600,negative control – OD600,positive control) × 100%. All experiments were repeated at least three times with each group containing three replicates. To better analyze concentration–IR relationships, sigmoidal function fittings were employed to generate the best fitted dose response curve for each situation.

[2] = system: NIH 3T3 fibroblasts cells (3T3 cells, ATCC-1658); format: cell-based; settings: MTT assay, 24 h exposure, 37 °C, absorbance 570 nm, sigmoidal fit; ± SD, at least three replicates; read-out: EC50, NIH/3T3
Protocol: Human dermal fibroblasts cells (adult, HDFa cells) and NIH 3T3 fibroblasts cells (3T3 cells, ATCC-1658) were cultured at 37 °C in Dulbecco’s modified Eagle medium (ATCC30-2002, added with 10% heat-inactivated fetal bovine serum) with a continuous supply of CO2 at a 5% level. MTT assays were carried out to examine in vitro cytotoxicity of the amphiphiles.[22] Cells were first inoculated in flat-bottom 96-well plates, rendering 8 × 10^3 cells in 100 μL of medium for each well, and were incubated for 24 h. The cells were mixed with 100 μL of a solution of an amphiphile with 2 times the selected concentrations. Cells were then exposed to the solutions of each amphiphile for 24 h, after which 10 μL of 5 mg/mL MTT solution was added into each well, and the reaction was allowed for 2 h. 200 μL of dimethyl sulfoxide was then added to each well to dissolve the transformed MTT formazan. Light absorbance of the samples was measured using a Thermo Scientific Varioskan LUX at 570 nm. Cell samples 100% viable and 100% dead were employed as the positive control and negative control, respectively. Dose response curves were obtained by applying sigmoidal function fittings to obtain 50% effective concentrations (EC50).

[3] = system: hRBCs; format: cell-based, human; settings: hemolysis in PBS, 4% hRBC suspension mixed 1:1, 37 °C, 1 h, OD450, sigmoidal fit; ± SD, at least three replicates; read-out: EC50, hRBC (50% hemolysis)
Protocol: hRBCs were purchased from Rockland Immunochemical Inc. Hemolytic assays were performed in 96-well plates in an environment of PBS, as previously described.[13],[23] Amphiphiles were half diluted serially at first, resulting in 100 μL of solution in each well, and mixed subsequently with 100 μL of 4% hRBC suspension. Wells filled by PBS mixed with hRBC were employed as positive controls, while hRBCs with added 0.1% Triton X-100 were negative controls. After incubating at 37 °C for 1 h, the plates were centrifuged at 1000 times gravity for 5 min. The supernatants in each well, which contained the released hemoglobin, were transferred to another plate, and their optical density at 450 nm (OD450) was measured using an absorbance microplate reader. The percentage of hemolysis H for each sample at a certain concentration c was obtained by Hc = (OD450,c – OD450,positive control)/(OD450,negative control – OD450,positive control) × 100%. Figures for percentage leakage against concentration for each sample were plotted to determine the approximate range of 50% hemolysis, and the relevant concentration was the half maximal effective concentration (EC50) of the sample. Each experiment was repeated at least three times with each containing three replicates. The dose–response curves were again obtained by applying sigmoidal functional fits to obtain the EC50 values.

[4] = previous findings by Lu et al.; cited from earlier work
Text: From the best fitted surface tension parameters (listed in Table S2), the area per molecule (APM) could be calculated from eq 4 for each amphiphile at its respective CAC. […] This is in line with the previous findings by Lu et al., which stated that APMs of C10TAB, C12TAB, C14TAB, C16TAB, and C18TAB adsorbed on the surface of water were 55 ± 3, 50 ± 2, 48 ± 3, 43 ± 3, and 43 ± 3 Å^2, respectively.[29]−[33] Each lipopeptide molecule occupied around 79 ± 10 Å^2 at ...

SMILES | MIC/CAC, converted data, S. aureus [1] | MIC, S. aureus [1] | EC50 [2] | EC50 [3] | APM adsorbed on the surface of water [4]
CCCCCCCCCCCC[N+](C)(C)C.[Br-] [C12TAB, dodecyltrimethylammonium bromide] | 0.03 ± 0.01 | 25 ± 7 µM | 12 ± 4 µM | 610 ± 30 µM | 50 ± 2 Å^2
CCCCCCCCCCCCCC[N+](C)(C)C.[Br-] [C14TAB, tetradecyltrimethylammonium bromide] | 0.06 ± 0.04 | 6 ± 4 µM | 3 ± 1 µM | 98 ± 8 µM | 48 ± 3 Å^2
